Experimental data: patent US20250320205A1, “STAT6 DEGRADERS” (Gilead Sciences, Inc., priority 2024, published 2025)

Experiments:
STAT6 = molecular target: T1, STAT6 (Homo sapiens, UniProt P42226); experiment: STAT6 Degrader Assay (HiBiT based, HeLa LgBiT clone 4.14 cells); format: cell-based; conditions: for DC50: geometric mean across assay runs and compound batches, DC50 provided for test compounds with >80% Emax, read-out: STAT6 degradation DC50; for Emax: HeLa, maximal STAT6 degradation
T1 construct: These cells express endogenous STAT6; host or cells: HeLa LgBiT clone 4.14 (CRISPR knock-in of HiBiT into the endogenous STAT6 gene)
T1 sequence (P42226 1-847): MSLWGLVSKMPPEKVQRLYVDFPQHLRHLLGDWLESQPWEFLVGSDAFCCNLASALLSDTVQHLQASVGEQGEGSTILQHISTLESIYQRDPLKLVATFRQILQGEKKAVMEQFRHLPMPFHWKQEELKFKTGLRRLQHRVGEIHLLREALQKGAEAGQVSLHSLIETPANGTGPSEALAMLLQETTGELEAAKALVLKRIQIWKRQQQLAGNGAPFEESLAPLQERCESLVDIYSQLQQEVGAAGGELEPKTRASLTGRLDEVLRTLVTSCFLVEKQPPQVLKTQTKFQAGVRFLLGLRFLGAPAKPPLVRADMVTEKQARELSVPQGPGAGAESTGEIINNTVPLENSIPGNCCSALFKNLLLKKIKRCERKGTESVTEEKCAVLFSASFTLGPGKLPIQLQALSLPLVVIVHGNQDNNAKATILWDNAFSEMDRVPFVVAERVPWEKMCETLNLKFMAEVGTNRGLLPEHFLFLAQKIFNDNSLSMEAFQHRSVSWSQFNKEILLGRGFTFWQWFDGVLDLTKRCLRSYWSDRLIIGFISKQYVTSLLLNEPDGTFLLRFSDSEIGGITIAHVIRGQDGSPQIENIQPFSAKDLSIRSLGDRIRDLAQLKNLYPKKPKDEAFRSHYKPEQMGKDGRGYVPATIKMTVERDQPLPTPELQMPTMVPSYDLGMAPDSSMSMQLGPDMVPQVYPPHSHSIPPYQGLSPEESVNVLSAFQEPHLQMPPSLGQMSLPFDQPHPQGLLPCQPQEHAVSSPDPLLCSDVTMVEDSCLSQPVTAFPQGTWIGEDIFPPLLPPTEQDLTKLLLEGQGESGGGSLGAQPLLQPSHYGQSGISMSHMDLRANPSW
Outline: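 DC50 (nM) comes from NanoBiT luminescence of HiBiT-knock-in STAT6 in HeLa LgBiT clone 4.14 cells, treated 4-24 h at 37° C. Luminescence reflects non-degraded STAT6, with 50 μM terfenadine wells taken as full degradation.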

[1] = test system: Eotaxin-3 (CCL26) release; experiment: Human Whole Blood Eotaxin-3 Assay (IL-4 stimulated); format: cell-based; conditions: Homo sapiens; geometric mean across assay runs and compound batches; EC50 provided for test compounds with >80% Emax
Method: This was a human whole blood assay using recombinant human Interleukin 4 to stimulate the blood and measuring the ability of the test compounds to inhibit eotaxin-3 release. The biological activities of the test compounds have been tested in human whole blood stimulated with IL-4 measuring Eotaxin-3 release. The test compounds were added to 384 well clear flat-bottom plate in a 4-fold serial dilution in triplicates using a liquid handler. Human whole blood stabilized in lithium-heparin tubes was added in a volume of 65 μL per well, resulting in a final DMSO concentration of 0.5%. The plate is incubated for 2 h at 37° C. under 5% CO2/95% air. Subsequently, 5 μL of recombinant human IL-4 (R&D Systems, cat #204-ILB) was added to the wells to a final concentration of 400 pM. The plate was incubated for 48 h at 37° C. under 5% CO2/95% air. The plate was spun down for 10 minutes at 500×g and 20 μL supernatant was harvested and transferred to a 384 well v-bottom plate using a liquid handler and stored at −20° C. until further analysis. 10 μL supernatant was used to measure the level of Eotaxin-3 (CCL26) using Human Eotaxin-3 MSD kit from Mesocsale (Cat #K251UEK-4). The assay was performed according to the manufacture instructions.

Row | SMILES | DC50 (STAT6) [nM] | EC50 [1] [nM] | Emax (STAT6) [%]
1 | C[C@@H](c1cc2c(-n3ccc4c(c3=O)CCN4)ccnc2n1C)N1CCC(c2ccc(C(=O)N3CCC(CN4CCN(c5ccc(N[C@@H]6CCC(=O)NC6=O)cc5F)CC4)CC3)cc2)CC1 (single isomer, unassigned) [Example 2c35] | 7.5 | 18.7 | –
2 | CNc1cc(=O)n(-c2ccnc3c2cc([C@H](C)N2CC=C(c4c(C)cc(C(=O)N5CCn6nc(CN7CCC(c8ccc(N[C@@H]9CCC(=O)NC9=O)c(OC)c8)CC7)cc6C5)cc4F)CC2)n3C)cc1F (single isomer, unassigned) [Example 2g12] | 0.7 | 0.5 | –
3 | CNc1cc(=O)n(-c2ccnc3c2cc(CN2CCC(c4c(F)cc(C(=O)N5CCC(CN6CCN(c7ccc(N[C@@H]8CCC(=O)NC8=O)cc7F)CC6)CC5)cc4F)CC2)n3C)cc1F (single isomer, unassigned) [Example 2g33] | 50.8 | 64.7 | –
4 | CNc1ccn(-c2ccnc3c2cc(CN2CCC(c4c(F)cc(C(=O)N5CCC(CN6CCN(c7ccc(N[C@@H]8CCC(=O)NC8=O)cc7F)CC6)CC5)cc4F)CC2)n3C)c(=O)c1 (single isomer, unassigned) [Example 2g57] | 9.3 | 50.3 | –
5 | CNc1ccn(-c2ccnc3c2cc([C@H](C)N2CC=C(c4c(C)cc(C(=O)N5CCC(CN6CCN(c7ccc(N[C@H]8CCC(=O)NC8=O)cc7F)C[C@@H]6C)CC5)cc4F)CC2)n3C)c(=O)c1 (single isomer, unassigned) [Example 2g98] | 6.9 | 16.7 | –
6 | CNc1ccn(-c2ccnc3c2cc(CN2CCC(c4c(F)cc(C(=O)N5CCn6nc(CN7CCC(c8ccc(NC9CCC(=O)NC9=O)cc8F)CC7)cc6C5)cc4F)CC2)n3C)c(=O)c1 (single isomer, unassigned) [Example 2g101] | 1 | 0.4 | –
7 | CNc1ccn(-c2ccnc3c2cc([C@H](C)N2CC=C(c4c(C)cc(C(=O)N5CCn6nc(CN7CCC(c8ccc(N[C@@H]9CCC(=O)NC9=O)c(OC)c8)CC7)cc6C5)cc4F)CC2)n3C)c(=O)c1 (single isomer, unassigned) [Example 2g118] | 0.1 | 1.1 | –
8 | CNc1cc(=O)n(-c2ccnc3c2cc([C@H](C)N2CC=C(c4c(F)cc(C(=O)N5CCC(CN6CCN(c7ccc(N[C@@H]8CCC(=O)NC8=O)cc7F)CC6)CC5)cc4F)CC2)n3C)cc1F (single isomer, unassigned) [Example 2g121] | 9.6 | 30.9 | –
9 | CNc1cc(=O)n(-c2ccnc3c2cc(CN2CCC(c4c(F)cc(C(=O)N5CCn6nc(CN7CCC(c8ccc(N[C@H]9CCC(=O)NC9=O)c(OC)c8)CC7)cc6C5)cc4F)CC2)n3C)cc1F (single isomer, unassigned) [Example 2g123] | 1.8 | 2.6 | –
10 | CNc1ccn(-c2ccnc3c2cc([C@H](C)N2CC=C(c4c(C)cc(C(=O)N5CCC(CN6CCN(c7ccc(N[C@H]8CCC(=O)NC8=O)c(OC)c7)CC6)CC5)cc4F)CC2)n3C)c(=O)c1 (single isomer, unassigned) [Example 2g126] | 4.3 | 21.2 | –
11 | CNc1ccn(-c2ccnc3c2cc([C@H](C)N2CC=C(c4c(C)cc(C(=O)N5CCC(CN6CCN(c7ccc(N[C@@H]8CCC(=O)NC8=O)c(OC)c7)CC6)CC5)cc4F)CC2)n3C)c(=O)c1 (single isomer, unassigned) [Example 2g127] | 20.8 | 9.3 | –

More lines, in order of falling EC50 [1], values ahead:

Row | DC50 (STAT6) [nM] | EC50 [1] [nM] | Emax (STAT6) [%] | SMILES
12 | 10.4 | 196 | – | CNc1ccn(-c2ccnc3c2cc(CN2CCC(c4c(F)cc(C(=O)N5CCC(CN6CCN(c7ccc(N[C@H]8CCC(=O)NC8=O)cc7F)CC6)CC5)cc4F)CC2)n3C)c(=O)c1 (single isomer, unassigned) [Example 2g58]
13 | 9.4 | 36.5 | – | CNc1cc(=O)n(-c2ccnc3c2cc([C@H](C)N2CC=C(c4c(F)cc(C(=O)N5CCC(CN6CCN(c7ccc(N[C@H]8CCC(=O)NC8=O)cc7F)CC6)CC5)cc4F)CC2)n3C)cc1F (single isomer, unassigned) [Example 2g120]
14 | – | 22.5 | 70 to 80 | CNc1ccn(-c2ccnc3c2cc([C@H](C)N2CCC(c4ccc(C(=O)N5CCC(CN6CCN(c7ccc(NC8CCC(=O)NC8=O)cc7F)CC6)CC5)cc4)CC2)n3C)c(=O)c1 (stereo partly drawn) [Example 2c31, 3-((3-fluoro-4-(4-((1-(4-(1-((S)-1-(1-methyl-4-(4-(meth-ylamino)-2-oxopyridin-1(2H)-yl)-1H-pyrrolo[2,3-b]pyridin-2-yl)ethyl)piperidin-4-yl)-benzoyl)piperidin-4-yl)meth-yl)piperzin-1-yl)phenyl)-amino)-piperidine-2,6-dione]
15 | 5.7 | 22.1 | – | C[C@@H](c1cc2c(-n3ccc4c(c3=O)CCN4)ccnc2n1C)N1CCC(c2ccc(C(=O)N3CCC(CN4CCN(c5ccc(N[C@H]6CCC(=O)NC6=O)cc5F)CC4)CC3)cc2)CC1 (single isomer, unassigned) [Example 2c36]
16 | – | 15.7 | 70 to 80 | C[C@@H](c1cc2c(-n3ccc4c(c3=O)CCN4)ccnc2n1C)N1CCC(c2ccc(C(=O)N3CCC(CN4CCN(c5ccc(NC6CCC(=O)NC6=O)cc5F)CC4)CC3)cc2)CC1 (stereo partly drawn) [Example 2c29, 3-((3-fluoro-4-(4-((1-(4-(1-((S)-1-(1-methyl-4-(4-oxo-1,2,3,4-tetrahydro-5H-pyr-rolo[3,2-c]pyridin-5-yl)-1H-pyrrolo[2,3-b]pyridin-2-yl)-ethyl)piperidin-4-yl)benzoyl)-piperidin-4-yl)methyl)piper-azin-1-yl)phenyl)amino)piper-idine-2,6-dione]
17 | 5.8 | 6.5 | – | CNc1ccn(-c2ccnc3c2cc([C@H](C)N2CC=C(c4c(C)cc(C(=O)N5CCC(CN6CCN(c7ncc(N[C@H]8CCC(=O)NC8=O)cc7F)C[C@H]6C)CC5)cc4F)CC2)n3C)c(=O)c1 (single isomer, unassigned) [Example 2g114]
18 | 2.5 | 5.7 | – | CNc1cc(=O)n(-c2ccnc3c2cc(CN2CCC(c4c(F)cc(C(=O)N5CCn6nc(CN7CCC(c8ccc(N[C@@H]9CCC(=O)NC9=O)c(OC)c8)CC7)cc6C5)cc4F)CC2)n3C)cc1F (single isomer, unassigned) [Example 2g124]
19 | 0.5 | 2.7 | – | CNc1cc(=O)n(-c2ccnc3c2cc([C@H](C)N2CC=C(c4c(C)cc(C(=O)N5CCn6nc(CN7CCC(c8ccc(N[C@@H]9CCC(=O)NC9=O)cc8F)CC7)cc6C5)cc4F)CC2)n3C)cc1F (single isomer, unassigned) [Example 2g5]
20 | 1 | 1.7 | – | CNc1cc(=O)n(-c2ccnc3c2cc([C@H](C)N2CC=C(c4c(C)cc(C(=O)N5CCn6nc(CN7CCC(c8ccc(N[C@H]9CCC(=O)NC9=O)c(OC)c8)CC7)cc6C5)cc4F)CC2)n3C)cc1F (single isomer, unassigned) [Example 2g11]
21 | 0.3 | 1.5 | – | CNc1cc(=O)n(-c2ccnc3c2cc([C@H](C)N2CC=C(c4c(C)cc(C(=O)N5CCn6nc(CN7CCC(c8ccc(N[C@H]9CCC(=O)NC9=O)cc8F)CC7)cc6C5)cc4F)CC2)n3C)cc1F (single isomer, unassigned) [Example 2g6]
22 | 1.5 | 0.8 | – | CNc1ccn(-c2ccnc3c2cc(CN2CCC(c4c(F)cc(C(=O)N5CCn6nc(CN7CCC(c8ccc(N[C@@H]9CCC(=O)NC9=O)cc8F)CC7)cc6C5)cc4F)CC2)n3C)c(=O)c1 (single isomer, unassigned) [Example 2g102]
23 | 0.3 | 0.5 | – | CNc1ccn(-c2ccnc3c2cc([C@H](C)N2CC=C(c4c(C)cc(C(=O)N5CCn6nc(CN7CCC(c8ccc(N[C@H]9CCC(=O)NC9=O)c(OC)c8)CC7)cc6C5)cc4F)CC2)n3C)c(=O)c1 (single isomer, unassigned) [Example 2g117]
